Structures are written as SMILES. Converted amounts (≈) assume the structure as drawn.

The conditions of the series: buffer; pH 7.4; 200.0 µM.
A word on the kinetic solubility: it is solubility judged after dilution from a stock solution rather than from solid. Take `CCOc1ccc(S(=O)(=O)Nc2cc(NS(=O)(=O)c3ccc(OCC)cc3)cc(C(=O)O)c2)cc1`: the kinetic solubility was above 78.1 µg/mL.

Consider `CSc1nc(-c2ccc(Cl)cc2)c(C#N)c(=O)n1C`, for which the solubility (kinetic) is below 0.2 µg/mL.

As for `CC(=O)c1cccc(NC(=S)N2CCCC2)c1`, the solubility (kinetic) is above 37.3 µg/mL.

As to `CSCCC(NC(=O)c1ccco1)C(=O)Nc1ccncc1` (stereo not given), the solubility (kinetic) is above 47.9 µg/mL.

Molecule `CC(C)n1c(CN(C)Cc2ccccc2)nc2c1c(=O)n(C)c(=O)n2C` yielded a kinetic solubility of 23.8 µg/mL (≈ 67 µM).

`CC(C)(C)NC(=O)c1ccc2c(c1)CCO2` showed a solubility (kinetic) above 32.9 µg/mL.

`Cc1noc(C)c1S(=O)(=O)Nc1ccccc1OC(F)(F)F` yielded a kinetic solubility of 48.6 µg/mL (≈ 145 µM).

For the molecule `CCN(CC)C(=O)c1cc(-c2ccc3c(c2)OCO3)on1`, the solubility (kinetic) is 20.8 µg/mL (≈ 72.1 µM).

As to `COc1ccc(CN2CN(C3CCCC3)CSC2=S)cc1`, the kinetic solubility amounted to 0.8 µg/mL (≈ 2.48 µM).

On to `CN(C)c1nc(N)c([N+](=O)[O-])c(NCC2CCCO2)n1` (stereo not given), for which the solubility (kinetic) amounted to 40.5 µg/mL (≈ 143 µM).

`O=C(c1cc(N2CCOCC2)c(F)cc1[N+](=O)[O-])N1CCOCC1` displayed a solubility (kinetic) of 48 µg/mL (≈ 141 µM).

`Cc1ccc(CONC(=O)c2cccc([N+](=O)[O-])c2)cc1` had a kinetic solubility above 42.9 µg/mL.

Turning to `Cc1ccc(S(=O)(=O)NCC2CCCO2)cc1` (stereo not given), the kinetic solubility is above 38.3 µg/mL.

In turn, `O=C(COC(=O)c1ccc(Cl)nc1)Nc1ccccc1OC(F)F` yielded a solubility (kinetic) above 53.5 µg/mL.

In the case of `Cc1ccc(S(=O)(=O)N2CCCCC2)cc1C(=O)OCC(=O)N1c2ccccc2NC(=O)C1(C)C`, the kinetic solubility stood at 3.2 µg/mL (≈ 6.41 µM).

The molecule `CN1C(=O)Cc2cc(S(=O)(=O)NCCc3ccccc3)ccc21` showed a kinetic solubility of 39.1 µg/mL (≈ 118 µM).

`CSc1ncc(C(=O)Nc2ccccc2)cn1` gave a solubility (kinetic) above 36.8 µg/mL.

`COc1ccc(NC(C)=O)cc1S(=O)(=O)N1CC=C(c2ccccc2)CC1`: the kinetic solubility was found to be 2.6 µg/mL (≈ 6.73 µM).

In turn, `O=C(NCc1ccncc1)C(=O)NC1CC1` had a solubility (kinetic) above 32.9 µg/mL.

`O=C(O)CN1C(=O)S/C(=C\c2cccnc2)C1=O` registered a kinetic solubility above 39.6 µg/mL.

Molecule `Cc1ccc2c(N)c(C(=O)c3ccccc3)sc2n1` returned a solubility (kinetic) of 3.1 µg/mL (≈ 11.6 µM).

In turn, `CCC(=Nc1cccc(C(F)(F)F)c1)c1c(O)n(C)c(=O)n(C)c1=O` returned a solubility (kinetic) of 6.4 µg/mL (≈ 18 µM).

In turn, `CN(C(=O)c1ccoc1)c1ccc2ccccc2c1` came in with a solubility (kinetic) of 29.1 µg/mL (≈ 116 µM).

`Cc1ccc(C)c(OCC(O)CNC2CCCC2)c1.Cl` (stereo not given) came in with a solubility (kinetic) above 45 µg/mL.

With `Cc1ccsc1/C=C(\C#N)C(=O)NCCCN1CCOCC1`, the solubility (kinetic) was determined as 45.7 µg/mL (≈ 143 µM).

`O=C(CCl)Nc1ccccc1C(=O)c1ccccc1` displayed a solubility (kinetic) above 41.1 µg/mL.

Turning to `COc1ccc(CCC(=O)NCc2ccc3c(c2)OCO3)cc1`, the kinetic solubility was found to be 23.1 µg/mL (≈ 73.7 µM).

`O=C(O)c1c2c(nc3ccc(Cl)cc13)CCC2`: the kinetic solubility stood at 32.1 µg/mL (≈ 130 µM).

For `CC(=O)Nc1ccc2c(COC(=O)[C@@H](NS(=O)(=O)c3ccc(C)cc3)C(C)C)cc(=O)oc2c1`, the kinetic solubility was 8.6 µg/mL (≈ 17.7 µM).

`O=S(=O)(c1ccc2c(c1)CCCC2)N1CCNCC1` yielded a solubility (kinetic) above 42.1 µg/mL.

The molecule `COc1ccc(O)c(CN2CCCC(C(=O)c3ccccc3SC)C2)c1` (stereo not given) yielded a solubility (kinetic) of 17.7 µg/mL (≈ 47.6 µM).

With `Cc1ccc(S(=O)(=O)N(C)C)cc1NC(=O)CCc1ccccc1`, the kinetic solubility was determined as 49.9 µg/mL (≈ 144 µM).

With `CC(=O)CC(C)(C)NC(C)=S`, the solubility (kinetic) was above 26 µg/mL.

`Nc1nc(-c2cc(Cl)cc(Cl)c2OC(F)F)cs1` had a solubility (kinetic) of 2.3 µg/mL (≈ 7.39 µM).

The molecule `Cc1ccc(S(=O)(=O)NC(=O)Nc2ccccc2)cc1` had a kinetic solubility of 41.8 µg/mL (≈ 144 µM).

In the case of `Cc1noc(C)c1S(=O)(=O)Nc1ccccc1Oc1ccccc1`, the solubility (kinetic) was 37.5 µg/mL (≈ 109 µM).

`Cc1ccc(S(=O)(=O)NCCC(=O)NCCc2ccc(S(N)(=O)=O)cc2)cc1C` displayed a kinetic solubility above 65.9 µg/mL.

`N=c1c2ccccc2nc2n1CCCCCCCCCCC2` came in with a solubility (kinetic) of 34.6 µg/mL (≈ 116 µM).

For `CCOc1ccc(Cl)cc1S(=O)(=O)NC1CCCC1`, the solubility (kinetic) was 38.8 µg/mL (≈ 128 µM).

`COc1cccc(NC(=O)Nc2ccc3c(c2)CCC3)c1` showed a kinetic solubility of 0.3 µg/mL (≈ 1.06 µM).

`O=C(Nc1cccnc1Cl)c1ccc(Cl)cc1` showed a solubility (kinetic) of 35 µg/mL (≈ 131 µM).

Molecule `Cc1cccc(Cl)c1OCCN1CCCC1.O=C(O)C(=O)O` showed a solubility (kinetic) above 49.5 µg/mL.

As to `CN(C)S(=O)(=O)c1ccc(NC=O)cc1`, the solubility (kinetic) was above 34.2 µg/mL.

For the molecule `CCC(C)NC(=O)Cn1c(=O)sc2ccccc21` (stereo not given), the solubility (kinetic) was 33.6 µg/mL (≈ 127 µM).

For the molecule `COC(=O)c1ccc(NC(=S)N2CCCC2)cc1`, the kinetic solubility is above 39.7 µg/mL.

`CN(C)N1C(=O)CC(N2CCCCC2)C1=O` (stereo not given) displayed a solubility (kinetic) above 33.8 µg/mL.

`CNc1ccc(/C=C(\C#N)C(=O)Nc2ccccn2)cc1[N+](=O)[O-]` came in with a kinetic solubility of 2.8 µg/mL (≈ 8.66 µM).

`Cc1ccc(Nc2nc(N)c([N+](=O)[O-])c(NCCO)n2)cc1C` came in with a solubility (kinetic) of 2.1 µg/mL (≈ 6.6 µM).

`CC(C)CCNC(=O)COc1ccc(C(=O)c2ccccc2)cc1` came in with a solubility (kinetic) of 13.5 µg/mL (≈ 41.5 µM).

Take `CC(=O)C1=C(O)C(=O)N(CCO)C1c1ccccc1` (stereo not given): the solubility (kinetic) was above 39.2 µg/mL.

The values above are taken from PubChem BioAssay AID1996.
